Measured values reported in ChEMBL document CHEMBL3351699, “Diarylthiazole: an antimycobacterial scaffold potentially targeting PrrB-PrrA two-component system” (J Med Chem, 2014).
In brackets after ≈: the same amount, converted by molar mass.

Assays:
[1] = test system: Mycobacterium tuberculosis; assay: Antimicrobial activity against Mycobacterium tuberculosis H37Rv ATCC 27294 assessed as growth inhibition after 5 days by microdilution method; type: functional; settings: H37Rv ATCC 27294, 120 h
[2] = test system: Mycobacterium tuberculosis; assay: Bactericidal activity against Mycobacterium tuberculosis H37Rv ATCC 27294 after 5 days by microdilution method; type: functional; settings: H37Rv ATCC 27294, 120 h
[3] = test system: Mycobacterium tuberculosis; assay: Antimicrobial activity against clinical isolate Mycobacterium tuberculosis H37Rv ATCC 27294 assessed as growth inhibition after 7 days by turbidometry; type: functional; settings: H37Rv ATCC 27294, 168 h
[4] = test system: Mycobacterium tuberculosis; assay: Antimicrobial activity against clinical isolate Mycobacterium tuberculosis Erdman assessed as growth inhibition after 7 days by turbidometry; type: functional; settings: 168 h
[5] = test system: Mycobacterium tuberculosis; assay: Antimicrobial activity against clinical isolate Mycobacterium tuberculosis DKU220 assessed as growth inhibition after 7 days by turbidometry; type: functional; settings: DKU220, 168 h
[6] = Solubility of the compound; type: physicochemical
[7] = test system: Mycobacterium tuberculosis; assay: Antimicrobial activity against clinical isolate Mycobacterium tuberculosis Harlingen assessed as growth inhibition after 7 days by turbidometry; type: functional; settings: 168 h
[8] = test system: Mycobacterium tuberculosis; assay: Antimicrobial activity against clinical isolate Mycobacterium tuberculosis JAL assessed as growth inhibition after 7 days by turbidometry; type: functional; settings: 168 h
[9] = test system: Mycobacterium tuberculosis; assay: Antimicrobial activity against clinical isolate Mycobacterium tuberculosis DKU211 assessed as growth inhibition after 7 days by turbidometry; type: functional; settings: DKU211, 168 h
[10] = test system: Mycobacterium tuberculosis; assay: Antimicrobial activity against clinical isolate Mycobacterium tuberculosis DKU97A assessed as growth inhibition after 7 days by turbidometry; type: functional; settings: 168 h
[11] = test system: Mycobacterium tuberculosis; assay: Ratio of MBC for Mycobacterium tuberculosis H37Rv ATCC 27294 to MIC for Mycobacterium tuberculosis H37Rv ATCC 27294; type: functional
[12] = test system: Mycobacterium tuberculosis; assay: Antimicrobial activity against clinical isolate Mycobacterium tuberculosis Beijing assessed as growth inhibition after 7 days by turbidometry; type: functional; settings: 168 h
[13] = test system: Mycobacterium tuberculosis; assay: Antimicrobial activity against clinical isolate Mycobacterium tuberculosis ATCC35811 assessed as growth inhibition after 7 days by turbidometry; type: functional; settings: ATCC35811, 168 h
[14] = test system: Mycobacterium tuberculosis; assay: Antimicrobial activity against clinical isolate Mycobacterium tuberculosis ATCC25618 assessed as growth inhibition after 7 days by turbidometry; type: functional; settings: ATCC25618, 168 h
[15] = test system: Mycobacterium tuberculosis; assay: Antimicrobial activity against clinical isolate Mycobacterium tuberculosis DKU76 assessed as growth inhibition after 7 days by turbidometry; type: functional; settings: DKU76, 168 h

Compound | MIC80 [1] | other results
CCCc1cc(-c2nc(-c3cccc(F)c3)cs2)ccn1 | 1 µg/mL (≈ 3.35 µM) | –
CCCc1cc(-c2nc(-c3ccnc(O[C@H]4CCOC4)c3)cs2)ccn1 | 2 µg/mL (≈ 5.44 µM) | –
CCCc1cc(-c2nc(-c3ccccc3OC)cs2)ccn1 | 1 µg/mL (≈ 3.22 µM) | –
COCc1cc(-c2nc(-c3ccc(Cl)cc3)cs2)ccn1 | 4 µg/mL (≈ 12.6 µM) | –
CCCc1cc(-c2nc(-c3ccnc(OCCN(C)C)c3)cs2)ccn1 | 8 µg/mL (≈ 21.7 µM) | –
CCCc1cc(-c2nc(-c3cccc(C(F)(F)F)c3)cs2)ccn1 | 0.5 µg/mL (≈ 1.44 µM) | –
CCCc1cc(-c2nc(-c3cccnc3)cs2)ccn1 | 1.6 µg/mL (≈ 5.69 µM) | –
O=c1cc(-c2nc(-c3ccc(Cl)cc3)cs2)cc[nH]1 | > 32 µg/mL | –
CCCc1cc(-c2nc(-c3ccnc(OC)c3)cs2)ccn1 | 0.2 µg/mL (≈ 0.642 µM) | –
CCCc1cc(-c2csc(-c3ccnc(CCC)c3)n2)ccn1 | 0.25 µg/mL (≈ 0.773 µM) | –
CCCc1cc(-c2nc(-c3ccc(Cl)cc3)c(C(=O)OCC)s2)ccn1 | > 32 µg/mL | –
CCc1cc(-c2ncc(-c3ccnc(OC)c3)s2)ccn1 | – | MBC [2]: 0.5 µg/mL (≈ 1.68 µM)
Clc1ccc(-c2csc(-c3ccnc(OCC4CC4)c3)n2)cc1 | 2 µg/mL (≈ 5.83 µM) | –
CCNc1cc(-c2nc(-c3ccc(Cl)cc3)cs2)ccn1 | 8 µg/mL (≈ 25.3 µM) | –
CCCc1cc(-c2nc(-c3ccc(OCCN4CCOCC4)cc3)cs2)ccn1 | 1 µg/mL (≈ 2.44 µM) | MIC80 [3]: 2 µg/mL (≈ 4.88 µM); MIC80 [4]: 1 µg/mL (≈ 2.44 µM); MIC80 [5]: 2 µg/mL (≈ 4.88 µM); solubility [6]: 29.8 µM (≈ 12.2 µg/mL); MIC80 [7]: 0.5 µg/mL (≈ 1.22 µM); MIC80 [8]: 1 µg/mL (≈ 2.44 µM); MIC80 [9]: 1 µg/mL (≈ 2.44 µM); MIC80 [10]: 1 µg/mL (≈ 2.44 µM); Ratio [11]: 2; MIC80 [12]: 1 µg/mL (≈ 2.44 µM); MIC80 [13]: 1 µg/mL (≈ 2.44 µM); MBC [2]: 5.2 µg/mL (≈ 12.7 µM); MIC80 [14]: 2 µg/mL (≈ 4.88 µM); MIC80 [15]: 1 µg/mL (≈ 2.44 µM)
CCCc1cc(-c2nc(-c3ccc(C(=O)NS(C)(=O)=O)cc3)cs2)ccn1 | 32 µg/mL (≈ 79.7 µM) | –
CCCc1cc(-c2nc(-c3ccc(OCCN4CCCC4)cc3)cs2)ccn1 | 4.9 µg/mL (≈ 12.5 µM) | solubility [6]: 155 µM (≈ 60.8 µg/mL); Ratio [11]: 1; MBC [2]: 4.9 µg/mL (≈ 12.5 µM)
CCCc1cc(-c2nc(-c3ccccc3)cs2)ccn1 | 1 µg/mL (≈ 3.57 µM) | –
CCCc1cc(-c2nc(-c3ccnc(OCC)c3)cs2)ccn1 | 0.1 µg/mL (≈ 0.307 µM) | MBC [2]: 0.1 µg/mL (≈ 0.307 µM)
Clc1ccc(-c2csc(-c3ccnc(N4CCOCC4)c3)n2)cc1 | > 32 µg/mL | –
CCc1cc(-c2nc(-c3ccc(Cl)cc3)cs2)ccn1 | 2 µg/mL (≈ 6.65 µM) | –
CCCc1cc(-c2nc(-c3ccc(F)cc3)cs2)ccn1 | 1 µg/mL (≈ 3.35 µM) | –
CCCc1cc(-c2nc(-c3ccc(Cl)cc3)c(C(=O)O)s2)ccn1 | > 32 µg/mL | –
Clc1ccc(-c2csc(-c3ccnc(C4CC4)c3)n2)cc1 | 4 µg/mL (≈ 12.8 µM) | –
